Data: patent US20180243309A1, “TOPICAL ANTIVIRAL COMPOSITIONS” (Topical Remedy, LLC, priority 2015, published 2018)

Tests used:
HSV-1, strain E-377 [1] = test: Orofacial HSV-1 infection in SKH-1 mice: mortality and facial lesion scores; type: in vivo; settings: for Mortality Number: dead/total, topical 3 times daily Days 4-6, 20 min intervals, acyclovir 3 times daily for 5 days from 24 h after inoculation; for #With Lesions/#Inoculated: facial lesions, days 1-21; for Mean Peak Lesion Score ± SD: lesion score scale 0.0-5.0
Method: In this model, mice are anesthetized with a ketamine/xylazine mixture and implanted with an electronic microchip for individual identification. […] This procedure is performed carefully to prevent bleeding. […] Following this procedure, animals are returned to their cages and observed until recovery.
(§1) To determine the effect of treatment on cutaneous viral replication, severity of lesions is scored from days 1-21 and swabs of the snout area are taken on days 2-8 and 10. […] All drug studies are placebo or vehicle controlled.
(§2) During the post-challenge phase, animals were examined daily and lesions scored for severity and samples taken for quantitation of orofacial HSV replication.
Female SKH-1 mice (Charles River Laboratories, Raleigh, N.C.) were assigned randomly to groups. Each efficacy group contained 10 animals. Animals were anesthetized with ketamine-xylazine, implanted with an identification microchip, and has the orofacial area abraded using a Dremmel tool with an engraving bit.
To determine the effect of treatment on the development and severity of lesions, severity of lesions were graded on a 0.0 to 5.0 scale in 0.5 increments, according to the scale below. The presence or absence of lesions and severity of lesions was recorded daily beginning day 1 through day 21 post-challenge. Animals were observed daily for signs of systemic viral disease.
Mortality rates were analyzed by Fisher's exact test and mean day of death using Mann-Whitney U rank sum test. Infection rates, peak lesion scores, peak virus titers, areas under the curve for virus titer-day and lesion score-day between control and treated animals will be compared using the Mann-Whitney U Rank Sum Test.

HSV-1, strain E-377 [2] = test: Orofacial HSV-1 infection in SKH-1 mice: virus titers of orofacial swabs (CPE microtiter assay on rabbit kidney cells); type: in vivo; settings: for mean virus titer ± standard deviation, Day 4 am: Day 4, am (before treatments); for mean virus titer ± standard deviation, Day 4 pm: Day 4, pm (after treatments); for mean virus titer ± standard deviation, Day 5 am: Day 5, am (before treatments); for mean virus titer ± standard deviation, Day 5 pm: Day 5, pm (after treatments); for mean virus titer ± standard deviation, Day 6 am: Day 6, am (before treatments); for mean virus titer ± standard deviation, Day 6 pm: Day 6, pm (after treatments); for Mean Peak Titer Score ± SD: orofacial swabs; for #Virus Positive/#Inoculated / Titer-Day AUC: orofacial swabs days 2-8 and 10
From the text: as §1, §2
To determine the effect of treatment on HSV-1 replication on the orofacial area, swabs of the area were obtained on days 2 through 8 and 10 post-viral challenge. On treatment days, swabs were obtained at least 3 hours following the final treatment. Swabs were placed in tubes containing 2.0 ml of media, vortexed, and frozen at −70° C. until titrated for HSV. […] Wells were seeded with 10^4 cells per well and inoculated in triplicate 24 h later. The plates were read under a microscope five days after viral inoculation and the presence/absence of viral CPE in each well noted. A TCID50 value was calculated using Reed-Muench Methodology.
To determine the effect of treatment on HSV-1 replication from the lesions on the orofacial area, swabs of the area were obtained at least 3 hours after treatment on days when mice are treated. […] Samples were taken before treatments and after treatments.
Mortality rates were analyzed by Fisher's exact test and mean day of death using Mann-Whitney U rank sum test. Infection rates, peak lesion scores, peak virus titers, areas under the curve for virus titer-day and lesion score-day between control and treated animals will be compared using the Mann-Whitney U Rank Sum Test. A P-value of 0.05 or less will be considered significant.
In addition, the immediate post treatment effects on lesion derived virus titers was analyzed using the mixed linear model with a P-value of 0.05 or less considered as significant. This difference in virus recovered from animals before and after treatments for all treatment days was used to calculate significance.

[3] = same regimens as Mortality Number

| Compound | Mortality Number (HSV-1, strain E-377 [1]) | #With Lesions/#Inoculated (HSV-1, strain E-377 [1]) | Mean Peak Lesion Score ± SD (HSV-1, strain E-377 [1]) | Lesion-Day AUC (HSV-1, strain E-377 [1]; lesion score scale 0.0-5.0, days 1-21) | MDD (Mean Day of Death) (HSV-1, strain E-377 [1]; [3]) | Mortality Percent (HSV-1, strain E-377 [1]; [3]) | mean virus titer ± standard deviation, Day 4 am (HSV-1, strain E-377 [2]) | mean virus titer ± standard deviation, Day 4 pm (HSV-1, strain E-377 [2]) | mean virus titer ± standard deviation, Day 5 am (HSV-1, strain E-377 [2]) | mean virus titer ± standard deviation, Day 5 pm (HSV-1, strain E-377 [2]) | mean virus titer ± standard deviation, Day 6 am (HSV-1, strain E-377 [2]) | mean virus titer ± standard deviation, Day 6 pm (HSV-1, strain E-377 [2]) | Mean Peak Titer Score ± SD (HSV-1, strain E-377 [2]) | #Virus Positive/#Inoculated (HSV-1, strain E-377 [2]) | Titer-Day AUC (HSV-1, strain E-377 [2]) |
| --- | --- | --- | --- | --- | --- | --- | --- | --- | --- | --- | --- | --- | --- | --- | --- |
| Ethyl alcohol [Compound 1] | 8/10 | 10/10 | 3.0 ± 0.0↑ | 41.1↑ | 7.9 | 80% | 5.1 ± 1.0^ TCID50 | 5.1 ± 1.5 TCID50 | 5.7 ± 0.4 TCID50 | 5.6 ± 0.6 TCID50 | 4.9 ± 0.7 TCID50 | 4.0 ± 0.8 TCID50 | 6.0 ± 0.2 | 10/10 | 32.2 |
| Nc1nc2c(ncn2COCCO)c(=O)[nH]1 [5% Acyclovir, Acyclovir, reference compound] | 0/10 | 0/10 | 0.0 ± 0.0 |  |  | 0% | 0.2 ± 0.8^ TCID50 | 0.0 ± 0.0 TCID50 | 0.0 ± 0.0 TCID50 | 0.0 ± 0.0 TCID50 | 0.0 ± 0.0 TCID50 | 0.0 ± 0.0 TCID50 | 0.6 ± 0.1 | 3/10 |  |
| Glycolic acid [Compound 2] |  |  |  |  |  |  | 4.2 ± 1.3^ TCID50 | 4.2 ± 1.6 TCID50 | 5.5 ± 0.4 TCID50 | 5.1 ± 0.6 TCID50 | 5.2 ± 0.6 TCID50 | 4.4 ± 0.5 TCID50 | 5.3 ± 0.5 | 10/10 | 33.3 |
